The record followed here is US20120171201A1.

Data set [1] is described as follows: Pharmacokinetics in tumor free Balb/C mice. Type of data set: in vivo. As to conditions: Released from Compound 9; single injection 20 mg/kg Compound 9, Balb/C mice, plasma. The source says:
Pharmacokinetic analysis was done using non-compartmental analysis (WinNonlin).

Data set [2] can be described thus: Solubility in aqueous saline solution.

In the case of `CCc1c2c(nc3ccc(O)cc13)-c1cc3c(c(=O)n1C2)COC(=O)[C@]3(O)CC`, in data set [1], the “Terminal t 1/2” value was found to be 14.2 h. Further, the “Solubility in Saline” value in data set [2] was “^a7-ethyl-10-hydroxycamptothecin is not soluble in saline”.
